Values joined by “and” are separate entries in the source; they are usually repeats but may differ in a detail not shown here. Equal values may be shown once.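 Briefly, cells in 96-well plates were exposed to five compound concentrations for 48 h, and endpoints were estimated by linear interpolation. GI50 = concentration required for 50% inhibition of growth. TGI: concentration producing complete growth inhibition.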
Tests used:
Experiment in all cases: inhibition of tumour cell growth, NCI panel, 48 h
[1] = system: 786-0 renal
[2] = system: COLO 205 colon
[3] = system: HL-60(TB) leukemia
[4] = system: MCF7 breast
[5] = system: MDA-MB-435
[6] = system: SK-OV-3 ovarian
[7] = system: SN12C renal
[8] = system: SNB-19 CNS
[9] = system: SR leukemia
[10] = system: UO-31 renal

Row | SMILES | GI50 [1] | TGI [1] | GI50 [2] | TGI [2] | GI50 [3] | TGI [3] | GI50 [4] | TGI [4] | GI50 [5] | TGI [5] | GI50 [6] | TGI [6] | GI50 [7] | TGI [7] | GI50 [8] | TGI [8] | GI50 [9] | TGI [9] | GI50 [10] | TGI [10]
1 | O=Nc1ccc(O)c(=O)cc1 | 2.18 µM | 5.52 µM | 1.08 µM | 3.45 µM | 0.547 µM | 2.59 µM | 2.73 µM | 14 µM | 3.28 µM | 13.2 µM | 16.2 µM | 37.3 µM | 2.95 µM | 12.4 µM | 13.5 µM | 27.3 µM | 0.954 µM | 9.19 µM | 1.15 µM | 2.69 µM
2 | COc1cc(Nc2nc3cc(N)cc(N)c3nc2-c2ccccc2)cc(OC)c1OC | 14.6 µM | 40.3 µM | 14 µM | 27.1 µM | 6.65 µM | 23.3 µM | 25.5 µM | 94.5 µM | 7.35 µM | 24.4 µM | 23 µM | 57.8 µM | 20.4 µM | 83.7 µM | 33.1 µM | > 100 µM | 3.31 µM | 16 µM | 15.1 µM | 90.3 µM
3 | COc1cc2c(cc1OC)[C@@H](Nc1ccc(C#N)cc1)C1COC(=O)[C@@H]1C2c1cc(OC)c(O)c(OC)c1 (stereo partly specified) | – | 2.76 µM | – | 15.6 µM | – | 0.0606 µM and 0.192 µM | – | > 100 µM | – | > 100 µM | 0.195 µM and 0.548 µM | – | – | 2.28 µM | – | 95 µM | – | 0.0742 µM | – | 11.9 µM
4 | CC(N)C(Cc1ccc(Cl)cc1)c1ccc(Cl)cc1 (stereo unspecified) | 10.2 µM | 24.3 µM | 1.89 µM | 3.97 µM | 10.6 µM | 26.1 µM | 2.99 µM | 12.5 µM | 8.2 µM | 20.7 µM | 16.8 µM | 30.8 µM | 11.4 µM | 26.7 µM | 14.1 µM | 29.5 µM | – | – | 7.12 µM | 20.9 µM
5 | CC(C)(CN1CCCCC1)C(=O)/C=C/c1ccc(/C=C/C(=O)C(C)(C)CN2CCCCC2)cc1 | – | 2.79 µM | – | 0.418 µM | – | 0.714 µM | – | 1.77 µM | – | 0.984 µM | – | 2.91 µM | – | 0.589 µM | – | 3.15 µM | – | 0.646 µM | – | 2.54 µM
6 | NS(=O)(=O)c1ccc(Nc2cc(-c3cccc(O)c3)[nH]n2)cc1 | > 25 µM | > 25 µM | > 25 µM | > 25 µM | > 25 µM | > 25 µM | > 25 µM | > 25 µM | > 25 µM | > 25 µM | > 25 µM | > 25 µM | > 25 µM | > 25 µM | > 25 µM | > 25 µM | 24.2 µM | > 25 µM | > 25 µM | > 25 µM
7 | c1ccc([P+](CCSCCSCC[P+](c2ccccc2)(c2ccccc2)c2ccccc2)(c2ccccc2)c2ccccc2)cc1 | – | > 100 µM | – | > 100 µM | – | > 100 µM | – | > 100 µM | – | > 100 µM | – | > 100 µM | – | > 100 µM | – | > 100 µM | – | – | – | > 100 µM
8 | Cc1cccc(N(C)C(=O)[C@@H]2[C@H](O)CCN2c2nc(C)cc(C(F)(F)F)c2C#N)c1 | 21.6 µM | 66.9 µM | 17.3 µM | 34 µM | 3.56 µM | 17.4 µM | 26.1 µM | > 100 µM | 32 µM | > 100 µM | 24.1 µM | 81.1 µM | 17.3 µM | 50.1 µM | 31.1 µM | > 100 µM | 5.24 µM | 28.6 µM | 14.8 µM | 29.5 µM
9 | COc1ccc2c(c1)/C(=C\c1c(-c3cc(OC)ccc3OC)nc3sc(C)cn13)C(=O)N2C | 31.1 µM | > 100 µM | 18.1 µM | 44.2 µM | 18.3 µM | 41.4 µM | 28.3 µM | > 100 µM | 26.5 µM | 79.9 µM | 28 µM | > 100 µM | 24.7 µM | > 100 µM | 58.9 µM | > 100 µM | 20.8 µM | 53 µM | 16.8 µM | > 100 µM
10 | COC(=O)c1n[nH]c(C)c1N=NN(C)CCC#N | – | 48.4 µM | – | 26.9 µM | – | 87.6 µM | – | 25.7 µM | – | > 100 µM | – | 61.5 µM | – | 33.8 µM | – | 87 µM | – | 44.6 µM | – | 13.3 µM
11 | CCN(Cc1ccc(C)cc1)c1ccc(CO)c(Cl)c1 | 4.32 µM | 19.3 µM | 0.996 µM | 4.05 µM | 5.78 µM | 35.7 µM | 0.191 µM | 11 µM | 13.7 µM | 28.5 µM | 4.23 µM | 16.8 µM | 10.6 µM | 25.8 µM | 14.5 µM | 31.1 µM | 17.6 µM | 46.8 µM | 3.81 µM | 17.7 µM
12 | CCN1C/C(=C\c2cc(OC)c(OC)cc2OC)C(=O)/C(=C/c2cc(OC)c(OC)cc2OC)C1 | 2.87 µM | 8.09 µM | 2.31 µM | 5.43 µM | 2.84 µM | 8.26 µM | – | – | 2.07 µM | 4.3 µM | 3.69 µM | > 100 µM | 3.11 µM | 9.14 µM | 4.23 µM | 23.7 µM | 3.16 µM | 8.99 µM | 1.8 µM | 3.9 µM
13 | OCCN1CCN(CCCN2c3ccccc3Sc3ccc(Cl)cc32)CC1 | 1.87 µM | 3.98 µM | 1.61 µM | 3 µM | 2.06 µM | 4.16 µM | 2.02 µM | 3.96 µM | 1.72 µM | 3.33 µM | 3.04 µM | 10.2 µM | 3.42 µM | 14.2 µM | 2.3 µM | 5.7 µM | – | – | 4.38 µM | 18.3 µM
14 | COc1ccc(/C=C/C(=O)c2cc(OC)c(OC)c(OC)c2)cc1OCC(=O)Nc1nc2ccc(OC(F)(F)F)cc2s1 | 2.26 µM | 4.97 µM | 6.37 µM | 39.8 µM | – | – | 1.32 µM | 7.77 µM | 0.3 µM | 1.08 µM | 2.16 µM | 5.07 µM | 1.74 µM | 4.67 µM | 1.58 µM | 51.8 µM | 0.391 µM | 3.66 µM | 1.61 µM | 5.07 µM

— PubChem BioAssay (NCI)
